Where two headings read alike, the source gives them in different places.
Columns and labels:
[1] = test system: M. tuberculosis H37Rv-GFP; test: microbe, parasite or virus in culture; assay type: cell-based, Mycobacterium tuberculosis; conditions: Mycobacterium tuberculosis, H37RV, Macrophage
Raw264.7 cells [2] = test: Cell number (CellNb) from image analysis of the phenotypic cell-based assay
Raw264.7 cells [3] = conditions: mouse
[4] = confirmation, 20 uM, read-out: QIM Confirm % Inhibition 20 uM
[5] = primary screen, 20 μM, read-out: Primary QIM % Inhibition

| Compound | inhibition at 20 µM [1, 4] [%] | inhibition at 20 µM [1, 5] [%] | Primary QIM CellNb (Raw264.7 cells [2]; primary screen, 20 μM) | Primary QIM CellNb (Raw264.7 cells [3]; 5 days, 20 μM) | further results |
| --- | --- | --- | --- | --- | --- |
| Cc1cccc(NC(=O)c2c(NC(=O)c3ccccc3Cl)sc3c2CCC3)c1 [IPK 000 073 70] | 103 | 88.6 | 234.0 | 56.7 |  |
| Cc1ccc(NC(=O)c2c(NC(=O)c3ccccc3Cl)sc3c2CCC3)cc1 [IPK 000 073 69] | 32.3 | 87 | 246.5 | 14.0 |  |
| CCOc1ccccc1/C=N/NC(=O)c1ccncc1 [IPK 000 043 27] | 102 | 47.6 | 125.8 | 105.2 |  |
| O=[N+]([O-])c1ccc(O)c(C2NN=C(c3ccccc3)S2)c1 (stereo not shown) [IPK 000 114 01] | -1.5 | 3.2 | 163.5 | 7.3 |  |
| COc1cc(Br)cc(/C=N/NC(=O)c2ccncc2)c1O [IPK 000 079 15] | 97.9 | 82.4 | 383.3 | 90.5 |  |
| COc1cc(Cl)cc(/C=N/NC(=O)c2ccccc2O)c1O [IPK 000 104 20] | 34.6 | 65.2 | 29.5 | −2.9 |  |
| c1cc2c(cc1C13CC4CC(CC(C4)C1)C3)c1c3n2CCNC3CCC1 (stereo not shown) [IPK 000 068 87] | 71.4 | 73.1 | 156.8 | −12.0 |  |
| O=[N+]([O-])c1cc(/C=N/c2ccc(S(=O)(=O)NC3NC=CS3)cc2)c2c(c1)COCO2 (stereo not shown) [IPK 000 057 92] | 27.2 | -30.7 | 165.3 | 23.0 |  |
| O=[N+]([O-])c1cc2c(cc1/C=N/c1ccc(S(=O)(=O)Nc3nccs3)cc1)OCO2 [IPK 000 057 78] | 35.5 | -10.9 | 177.0 | 12.6 |  |
| O=C(NC1CCCCC1)c1ccc(COc2cc(Cl)ccc2Cl)o1 [IPK 000 123 90] | 87.7 | 73.1 | 205.0 | 26.7 |  |
| CCOC(=O)/C=C/C(=O)NNC(=O)c1cccs1 [IPK 000 109 99] | 28.1 | 8.5 | 183.0 | 20.3 | QIM Confirm CellNb 2 uM (Raw264.7 cells [2]; confirmation): 174.3; QIM Confirm CellNb 2 uM (Raw264.7 cells [3]; 5 days): 101.3 |
| O=C(N/N=C1\C(=O)N(Cc2cccc3ccccc23)c2ccccc21)c1cc(-c2ccccc2)n[nH]1 [IPK 000 103 78] | 98 | 94.6 | 263.5 | 3.5 |  |
| O=C(Nc1sc2c(c1C(=O)Nc1ccccc1)CCC2)c1ccccc1Cl [IPK 000 073 68] | 92.6 | 88.2 | 202.3 | 74.7 |  |
| Cc1cccn2c(=O)c(C=O)c(Nc3cccc(Cl)c3)nc12 [IPK 000 042 07] | 107 | 34.7 | 198.0 | 104.0 |  |
| O=C(Nc1cccc(C(F)(F)F)c1)Nc1ccc(Cl)c(Cl)c1 [IPK 000 052 50] | 76.4 | 45 | 44.0 | 10.8 |  |
| COc1cccc(C2Nc3ccc(C(=O)O)cc3C3C=CCC32)c1 (stereo not shown) [IPK 000 112 80] | 55.6 | 41.1 | 152.0 | 10.7 | QIM Confirm CellNb 2 uM (Raw264.7 cells [2]; confirmation): 189.0; QIM Confirm CellNb 2 uM (Raw264.7 cells [3]; 5 days): 98.3 |
| O=C(N/N=C/c1ccc(Cl)cc1)c1ccncc1 [IPK 000 041 53] | 97 | 100 | 426.8 | 98.1 |  |
| O=[N+]([O-])c1ccc(O)c(/C=N/c2ccccc2O)c1 [IPK 000 044 20] | 30.7 | -67.5 | 135.0 | 6.3 |  |
| O=C(COc1ccccc1-c1ccccc1)N/N=C\c1ccc([N+](=O)[O-])s1 [IPK 000 103 28] | 71.3 | 71.1 | 134.3 | 49.5 |  |
| O=C(N/N=C/c1cccs1)c1ccncc1 [IPK 000 043 33] | 104 | 83 | 270.8 | 94.5 |  |
| O=C(Nc1sc2c(c1C(=O)Nc1ccccc1)CCC2)c1cccs1 [IPK 000 042 30] | 95.9 | 73.7 | 193.8 | 75.2 |  |
| O=C(N/N=C/c1ccccc1Cl)c1ccncc1 [IPK 000 043 05] | 104 | 97.1 | 228.8 | 101.6 | QIM Confirm CellNb 20 uM (Raw264.7 cells [3]; 5 days, 20 uM): 80.2 |

| Compound | inhibition at 20 µM [1, 4] [%] | inhibition at 20 µM [1, 5] [%] | Primary QIM CellNb (Raw264.7 cells [2]; primary screen, 20 μM) | Primary QIM CellNb (Raw264.7 cells [3]; 5 days, 20 μM) | further results |
| --- | --- | --- | --- | --- | --- |
| CC(NC(=O)c1cccc(Cl)c1)c1ccccc1 (stereo not shown) [IPK 000 067 51] | 73.2 | 75.2 | 142.3 | 17.9 |  |
| CN1C/C(=C\c2ccccc2Br)C(=O)/C(=C/c2ccccc2Br)C1 [IPK 000 102 36] | 66.5 | 65.6 | 193.3 | 4.4 |  |
| O=C(N/N=C/c1ccc(Br)cc1)c1ccncc1 [IPK 000 041 51] | 94 | 89 | 351.3 | 102.9 |  |
| CCCOC(=O)C1=C(C)NC2=C(C(=O)CC(c3ccccc3)C2)C1c1cccc(O)c1 (stereo not shown) [IPK 000 085 99] | 49.5 | 37.1 | 67.3 | 4.5 |  |
| O=C(N/N=C/c1ccc(O)cc1O)c1ccncc1 [IPK 000 043 28] | 95.9 | 94.9 | 326.5 | 87.1 |  |
| COc1cc(/C=N/NC(=O)c2ccncc2)ccc1O [IPK 000 042 97] | 103 | 99.7 | 307.8 | 99.2 |  |
| O=C(N/N=C/c1ccccc1[N+](=O)[O-])c1ccncc1 [IPK 000 043 35] | 101 | 104 | 245.5 | 94.4 | QIM Confirm CellNb 20 uM (Raw264.7 cells [2]; confirmation, 20 uM): 461.5 |
| CCOc1ccc(/C(C)=N/NC(N)=S)cc1 [IPK 000 080 37] |  |  |  |  | inhibition at 20 µM ([1]; read-out: Primary QIM % Inhibition): -44%; inhibition at 20 µM ([1]; read-out: QIM Confirm % Inhibition 20 uM): 36%; Primary QIM CellNb (Raw264.7 cells [2]): 110.8; Primary QIM CellNb (Raw264.7 cells [3]): 62.1 |
| COc1c(O)cc(/C=N/NC(=O)c2ccncc2)cc1Br [IPK 000 078 30] | 105 | 108 | 388.3 | 97.0 |  |
| CC(/C=N/NC(=O)c1cccc(F)c1)c1ccccc1 (stereo not shown) [IPK 000 104 13] | 89.6 | 68.8 | 115.8 | 25.2 |  |
| CC/C(Cc1ccccc1)=N\NC(=O)c1ccncc1 [IPK 000 078 86] | 108 | 96.9 | 462.0 | 88.3 |  |
| O=C(N/N=C/c1ccc[nH]1)c1ccccn1 [IPK 000 058 21] | 56 | 90.9 | 452.5 | 75.7 |  |
| Nc1nonc1NC(=O)CSc1cccc2ccccc12 [IPK 000 106 30] | 67.2 | 65.7 | 146.5 | 28.5 |  |
| CC(/C=N/NC(=O)c1ccccn1)=C\c1ccco1 [IPK 000 110 79] | 83.4 | 72.9 | 462.3 | 22.8 |  |
| COc1ccc(/C(C)=N/NC(N)=S)c(OC)c1 [IPK 000 080 24] | 23 | 0.2 | 188.8 | 67.6 |  |
| O=C(N/N=C/c1cc2ccccc2[nH]1)c1ccncc1 [IPK 000 043 12] | 100 | 69.9 | 195.0 | 104.6 |  |
| O=[N+]([O-])c1cc(Br)cc(/C=N/c2ccccc2O)c1O [IPK 000 080 69] | 16.5 | -42.5 | 123.5 | 37.6 |  |
| Cc1ccccc1NC(=O)c1c(NC(=O)c2ccccc2Cl)sc2c1CCC2 [IPK 000 073 71] | 65.2 | 87.5 | 218.3 | 29.8 | QIM Confirm CellNb 0.2 uM (Raw264.7 cells [3]; 5 days, 0.2 uM): 45.3 |
| CCOC(=O)/C=C/C(=O)Nc1sc(Cc2ccccc2)c(C)c1C(N)=O [IPK 000 110 16] | 86 | 59 | 179.5 | 6.0 |  |
| NNC(=O)c1ccc(COc2ccc(F)cc2)o1 [IPK 000 124 65] | 94.3 | 77.1 | 490.8 | 45.0 | QIM Confirm CellNb 0.2 uM (Raw264.7 cells [2]; confirmation, 0.2 uM): 267.0 |
| CCN(CC)c1ccc(/C=N/NC(=O)c2cccs2)c(O)c1 [IPK 000 103 76] | 74.5 | 85.7 | 47.8 | −1.7 |  |
| Cc1nn(C)cc1/C=N/NC(=O)c1ccncc1 [IPK 000 079 13] | 102 | 69.6 | 294.0 | 97.8 |  |
